EC50 data for one compound are collected here from paper PMC8982737, “Discovery of S-217622, a Noncovalent Oral SARS-CoV-2 3CL Protease Inhibitor Clinical Candidate for Treating COVID-19” (Journal of Medicinal Chemistry, 2022).

This assay relates to SARS-CoV-2. Nature of the assay: microbe, parasite or virus in culture. Conditions: Severe acute respiratory syndrome coronavirus 2, VeroE6/TMPRSS2; read-out: EC50 against all tested SARS-CoV-2 variants. Format: cell-based.

Structures are written as SMILES. pEC50: −log10 of the molar value.

Broadly, the pEC50 is the negative decadic logarithm of the EC50, by convention in mol/L. `Cn1cnc(Cn2c(=O)[nH]/c(=N\c3cc4cn(C)nc4cc3Cl)n(Cc3cc(F)c(F)cc3F)c2=O)n1` [Compound 3, (6E)-6-[(6-Chloro-2-methyl-2H-indazol-5-yl)imino]-3-[(1-methyl-1H-1,2,4-triazol-3-yl)methyl]-1-(2,4,5-trifluorobenzyl)-1,3,5-triazinane-2,4-dione]: the pEC50 is 6.30 to 6.54.
